In PMC8467575, “Bacterial-Specific Aggregation and Killing of Immunomodulatory Host Defense Peptides” (Pharmaceuticals, 2021):
Converted amounts (≈) assume the structure as drawn. Where two headings read alike, the source gives them in different places. Where a SMILES comes first, the peptide text is derived from it. Bridges are numbered along the chain shown (N, C = ends).

Columns and labels:
[1] = test system: Escherichia coli ATCC 25922; experiment: microbe, parasite or virus in culture; assay type: cell-based
Procedure: (§1) E. coli, S. aureus, and S. enterica were cultured in nutrient broth at 37 °C. Listeria was cultured in brain heart infusion broth at 37 °C. Bacteria at early log phase (OD600 ≈ 0.1) were incubated with the peptides at different concentrations (100–3.12 µM) for 4–6 h. After the incubation period, the bacterial culture medium was diluted at different ratios (1 in 2000–2,000,000) in sterile PBS and was spread on blood agar (BA) plates. BA plates were incubated at 37 °C for 24 h, and the number of colonies formed was counted to determine cell viability.

[2] = test system: Salmonella enterica ATCC 13076; experiment: microbe, parasite or virus in culture; assay type: cell-based; settings: for MIC: read-out: MIC S. enterica
Procedure: as §1

[3] = test system: Staphylococcus aureus ATCC 25923; experiment: microbe, parasite or virus in culture; assay type: cell-based
Procedure: as §1

[4] = test system: E. coli (ATCC 25922GFP) in Caco-2 cells; experiment: Bacterial infection of Caco-2 cells; assay type: cell-based, Escherichia coli; settings: 400,000 CFU/mL GFP-expressing E. coli, 5 µM peptide, 5 h, fluorescence microscopy
Procedure: Caco-2 cells grown in six-well plates were also infected with E. coli (ATCC 25922GFP) at a CFU of 400,000 cells/mL. Cells were then incubated with 5 µM of TAMRA-labeled peptides for 5 h and were observed under fluorescence microscope for the presence of fluorescent bacteria.

[5] = test system: Listeria monocytogenes ATCC 19115; assay type: cell-based
Procedure: as §1

[6] = test system: chicken red blood cell suspension; experiment: Hemolysis assay; assay type: cell-based; settings: eukaryotic cells (cytotoxicity and hemolysis at 100 µM) versus antibacterial IC50
Procedure: A chicken red blood cell suspension was purchased from Cedarlane (Burlington, CA). RBCs were incubated with a 100 µM concentration of each peptide at 37 °C for 4 h. Triton-X was used as a positive control to achieve total hemolysis of RBCs. Percentage hemolysis was determined in triplicate by centrifuging down the RBC suspension and by measuring the absorbance of the supernatant at 540 nm. (2) % Hemolysis=Absorbance of sample @540nm /Absorbance of positive control @540nm×100%.

[7] = test system: DF-1 chicken embryonic fibroblasts; experiment: Cytotoxicity assay (MTS); assay type: cell-based; settings: 100 µM peptide, 24 h, triplicate
Procedure: (§2) DF-1 chicken embryonic fibroblasts were cultured in DMEM containing 8% FBS and 2% CS. Caco-2 cells were cultured in EMEM containing 20% FBS. Cells in growth phase (~70% confluency) were incubated with a 100 µM concentration of each peptide for 24 h. Cell viability was determined in triplicate by MTS assay using the CellTiter 96® AQueous Cell Proliferation Assay, as per the manufacturer’s protocol.

[8] = test system: Caco-2 human colorectal adenocarcinoma cells; experiment: Cellular uptake of TAMRA-labeled peptides (flow cytometry, fluorescence microscopy); assay type: cell-based; settings: 5 h
Procedure: Caco-2 human colorectal adenocarcinoma cells were cultured to growth phase (~70% confluency) in EMEM containing 20% FBS and were treated with 5 µM of TAMRA-labeled peptides for 5 h. The uptake of fluorescently labeled peptide in Caco-2 human colorectal adenocarcinoma cells was measured by flow cytometry using BD FACS Calibur (BD Biosciences (Franklin Lakes, NJ, USA)) and by fluorescence microscopy.

E. coli = experiment: Bacterial uptake of TAMRA-labeled peptides; assay type: cell-based, Escherichia coli; settings: 5 µM, up to 5 h, log phase culture, fluorescence of free peptide in supernatant, triplicate
Procedure: (§3) TAMRA-conjugated peptides were used for cellular uptake studies. Liquid cultures of E. coli and Bacillus subtilis at log phase (OD600 ≈ 0.3–0.4) were incubated with TAMRA-labeled peptides (5 µM), and the percentage uptake of peptides was determined in triplicate for 5 h by measuring the fluorescence of free peptide in the supernatant of bacteria at […] wavelengths of 579 and 546 nm. (1) % Uptake=100−Fluorescence of supernatant/Initial fluorescence of sample×100%

Caco-2 cells = experiment: Cytotoxicity assay (MTS); assay type: cell-based, human; settings: 100 µM peptide, 24 h, triplicate
Procedure: as §2

Bacillus subtilis = experiment: Bacterial uptake of TAMRA-labeled peptides; assay type: cell-based; settings: 5 µM, up to 5 h, log phase culture, fluorescence of free peptide in supernatant, triplicate
Procedure: as §3

IC50 ([1]; Escherichia coli, ATCC25922, early log phase (OD600 ≈ 0.1), nutrient broth 37 °C, peptide 100–3.12 µM for 4–6 h, colony count on blood agar after 24 h, read-out: IC50 E. coli) | IC50 ([2]; Salmonella enterica, ATCC13076, early log phase (OD600 ≈ 0.1), nutrient broth 37 °C, peptide 100–3.12 µM for 4–6 h, colony count on blood agar after 24 h, read-out: IC50 S. enterica) | MIC ([2]; Salmonella enterica, ATCC13076, early log phase, nutrient broth 37 °C, 4–6 h, colony count on blood agar) | IC50 ([3]; Staphylococcus aureus, ATCC25923, early log phase (OD600 ≈ 0.1), nutrient broth 37 °C, peptide 100–3.12 µM for 4–6 h, colony count on blood agar after 24 h, read-out: IC50 S. aureus) | Structure (SMILES) | IC50 ([1]; ATCC 25922) | MIC E. coli ([1]; ATCC 25922) | IC50 ([2]; ATCC 13076) | MIC ([2]; ATCC 13076) | IC50 ([3]; ATCC 25923) | MIC S. aureus ([3]; ATCC 25923) | reduction of bacterial infection of Caco-2 cells [4] | IC50 [5] | MIC L. monocytogenes [5] | nontoxic and hemocompatible concentration as fold of the IC50 of the peptide [6] | viability of DF-1 fibroblasts [7] | % fluorescent cells (cellular uptake) ([8]; Caco-2, 5 µM TAMRA-labeled peptide, flow cytometry) | uptake of fluorescent peptide seen by fluorescence microscopy ([8]; Caco-2, TAMRA-labeled peptide) | uptake of TAMRA-labeled peptide in E. coli (E. coli) | viability of Caco-2 intestinal epithelial cells (Caco-2 cells) | uptake of TAMRA-labeled peptide in B. subtilis (Bacillus subtilis)
15.2 µM | 7 µM | 13.5 µM (≈ 4.72 µg/mL) | 3.6 µM | CC1(C)S[C@@H]2[C@H](NC(=O)[C@H](N)c3ccccc3)C(=O)N2[C@H]1C(=O)O [Ampicillin, reference compound] | – | – | – | – | – | – | – | – | – | – | – | – | – | – | – | –
– | – | – | – | CC[C@H](C)[C@@H]1NC(=O)[C@H](CCCNC(=N)N)NC(=O)[C@H](Cc2ccccc2)NC(=O)[C@H](CCCCN)NC(=O)[C@H](Cc2ccccc2)NC(=O)[C@H](CCCNC(=N)N)NC(=O)[C@@H](N)CSSC[C@@H](C(N)=O)NC(=O)[C@H]([C@@H](C)CC)NC(=O)[C@H](C(C)C)NC1=O [mCA4-5] (H-CRFKFRIVIC-NH2; disulfide 1-10) | 15.1 µM | 40 µM (≈ 51.3 µg/mL) | 10.2 µM | 30 µM (≈ 38.5 µg/mL) | 4 µM | 15 µM (≈ 19.2 µg/mL) | actively contained and reduced bacterial infections | 5.2 µM | 10 µM (≈ 12.8 µg/mL) | > 6 fold | – | – | – | – | – | –
– | – | – | – | N=C(N)NCCC[C@@H]1NC(=O)[C@H](CCCNC(=N)N)NC(=O)[C@H](CCCNC(=N)N)NC(=O)[C@@H](N)CSSC[C@@H](C(N)=O)NC(=O)[C@H](Cc2c[nH]cn2)NC(=O)[C@@H]2CCCN2C(=O)[C@H](CO)NC(=O)CNC1=O [mCA4-4] (H-CRRRGSPHC-NH2; disulfide 1-9) | – | – | – | – | – | – | unable to reduce the bacterial burden | – | – | – | did not compromise the viability | 19% | weak fluorescence | taken up well | did not compromise the viability | taken up well
